{"source": "ChEMBL document CHEMBL1133908", "about": "“Novel 3-(2-adamantyl)pyrrolidines with potent activity against influenza A virus-identification of aminoadamantane derivatives bearing two pharmacophoric amine groups” (2001)", "key": {"[1]": {"system": "MDCK", "test": "Minimum inhibitory concentration required to reduce influenza A H3N2 (X31) virus induced cytopathogenicity by 50% in madin-Darby canine kidney cells (MDCK)", "assay_type": "functional", "conditions": "Canis lupus familiaris"}, "[2]": {"system": "MDCK", "test": "Minimum inhibitory concentration required to reduce influenza A H2N2 virus induced cytopathogenicity by 50% in madin-Darby canine kidney cells (MDCK)", "assay_type": "functional", "conditions": "Canis lupus familiaris"}, "[3]": {"system": "MDCK", "test": "Minimum cytotoxic concentration required to cause a microscopically detectable alteration of normal cell morphology in madin-Darby canine kidney cells (MDCK)", "assay_type": "functional, Canis lupus familiaris"}}}
{"molecule": "C1CC(C2C3CC4CC(C3)CC2C4)CN1", "note": "(stereo unspecified)", "values": [{"measurement": "MIC50", "setting": "[1]", "result": 5, "unit": "µM"}, {"measurement": "MIC50", "setting": "[2]", "result": 0.6, "unit": "µM"}, {"measurement": "MCC50", "setting": "[3]", "result": 124.4, "unit": "µM"}]}
{"molecule": "CN1CCC(C2C3CC4CC(C3)CC2C4)C1", "note": "(stereo unspecified)", "values": [{"measurement": "MIC50", "setting": "[1]", "result": 18.8, "unit": "µM"}, {"measurement": "MIC50", "setting": "[2]", "result": 18.8, "unit": "µM"}, {"measurement": "MCC50", "setting": "[3]", "result": ">156.4", "unit": "µM"}]}
{"molecule": "CN(C)CCN1CCC(C2C3CC4CC(C3)CC2C4)C1", "note": "(stereo unspecified)", "values": [{"measurement": "MIC50", "setting": "[1]", "result": 9.4, "unit": "µM"}, {"measurement": "MIC50", "setting": "[2]", "result": 0.38, "unit": "µM"}, {"measurement": "MCC50", "setting": "[3]", "result": 78.7, "unit": "µM"}]}
{"molecule": "CCCN1CCC(C2C3CC4CC(C3)CC2C4)C1", "note": "(stereo unspecified)", "values": [{"measurement": "MIC50", "setting": "[1]", "result": "> 28.2", "unit": "µM"}, {"measurement": "MIC50", "setting": "[2]", "result": "> 28.2", "unit": "µM"}, {"measurement": "MCC50", "setting": "[3]", "result": 140.9, "unit": "µM"}]}
{"molecule": "CCCCN1CCC(C2C3CC4CC(C3)CC2C4)C1", "note": "(stereo unspecified)", "values": [{"measurement": "MIC50", "setting": "[1]", "result": "> 26.9", "unit": "µM"}, {"measurement": "MIC50", "setting": "[2]", "result": "> 26.9", "unit": "µM"}, {"measurement": "MCC50", "setting": "[3]", "result": 134.3, "unit": "µM"}]}
{"molecule": "CCN(CC)CCN1CCC(C2C3CC4CC(C3)CC2C4)C1=O", "note": "(stereo unspecified)", "values": [{"measurement": "MIC50", "setting": "[1]", "result": 11.1, "unit": "µM"}, {"measurement": "MIC50", "setting": "[2]", "result": 11.1, "unit": "µM"}, {"measurement": "MCC50", "setting": "[3]", "result": 92, "unit": "µM"}]}
{"molecule": "C1CCN(CCN2CCC(C3C4CC5CC(C4)CC3C5)C2)CC1", "note": "(stereo unspecified)", "values": [{"measurement": "MIC50", "setting": "[1]", "result": 0.35, "unit": "µM"}, {"measurement": "MIC50", "setting": "[2]", "result": 1.7, "unit": "µM"}, {"measurement": "MCC50", "setting": "[3]", "result": 14.6, "unit": "µM"}]}
{"molecule": "NC(=O)c1ncn([C@@H]2O[C@H](CO)[C@@H](O)[C@H]2O)n1", "note": "[RIBAVIRIN]", "values": [{"measurement": "MIC50", "setting": "[1]", "result": 123, "unit": "µM"}, {"measurement": "MIC50", "setting": "[2]", "result": 615, "unit": "µM"}, {"measurement": "MCC50", "setting": "[3]", "result": ">1024.6", "unit": "µM"}]}
{"molecule": "CCN(CC)CCN1CCC(C2C3CC4CC(C3)CC2C4)C1", "note": "(stereo unspecified)", "values": [{"measurement": "MIC50", "setting": "[1]", "result": "> 14.9", "unit": "µM"}, {"measurement": "MIC50", "setting": "[2]", "result": 8.9, "unit": "µM"}, {"measurement": "MCC50", "setting": "[3]", "result": 74.5, "unit": "µM"}]}
{"molecule": "NC12CC3CC(CC(C3)C1)C2", "note": "[AMANTADINE]", "values": [{"measurement": "MIC50", "setting": "[1]", "result": 12.8, "unit": "µM"}, {"measurement": "MIC50", "setting": "[2]", "result": 2.6, "unit": "µM"}, {"measurement": "MCC50", "setting": "[3]", "result": ">533.3", "unit": "µM"}]}
{"molecule": "CCN1CCC(C2C3CC4CC(C3)CC2C4)C1", "note": "(stereo unspecified)", "values": [{"measurement": "MIC50", "setting": "[1]", "result": "> 29.7", "unit": "µM"}, {"measurement": "MIC50", "setting": "[2]", "result": "> 29.7", "unit": "µM"}, {"measurement": "MCC50", "setting": "[3]", "result": 148.2, "unit": "µM"}]}
{"molecule": "CN(C)CCN1CCC(C2C3CC4CC(C3)CC2C4)C1=O", "note": "(stereo unspecified)", "values": [{"measurement": "MIC50", "setting": "[1]", "result": 14.7, "unit": "µM"}, {"measurement": "MIC50", "setting": "[2]", "result": 14.7, "unit": "µM"}, {"measurement": "MCC50", "setting": "[3]", "result": 122.4, "unit": "µM"}]}
